Measured values reported in patent publication US20120034613A1, “Apparatus and Method for Testing Relationships Between Gene Expression and Physical Appearance of Skin” (NSE Products, Inc., priority 2010, published 2012).

Test system: EpidermFT™ Skin Model (EFT-400) full thickness skin cultures
Test: Affymetrix GeneChip HG U133 Plus 2.0 microarray global gene expression, agent-exposed vs untreated skin cultures
Format: cell-based, human
Details: 24 hr; for Direction / Fold change: Salicin 0.5%
[1] = Salicin 0.5% vs Untreated Control

Q: What does the source list for `OCc1ccccc1O[C@@H]1O[C@H](CO)[C@@H](O)[C@H](O)[C@H]1O` [Salicin, 2-(Hydroxymethyl)phenyl β-D-glucospyranoside]?
A: Direction (1554602_at RBM8A): up; Fold change (1554602_at RBM8A): 2.141; Direction (1555270_a_at WFS1): up; Fold change (1555270_a_at WFS1): 2.096; Direction (1559477_s_at MEIS1): up; Fold change (1559477_s_at MEIS1): 2.098; Direction (1561042_at ITGB1): up; Fold change (1561042_at ITGB1): 2.151; Direction ABCD3 (202850_at) [1]: down; Direction ABCG4 (207593_at) [1]: down; Direction ACACA (212186_at) [1]: down; Direction ACAD9 (224160_s_at) [1]: down; Direction ACOX3 (204241_at) [1]: down; Direction ADAMTSL4 (226071_at) [1]: down; Direction ADARB1 (203865_s_at) [1]: down; Direction AHNAK (211986_at) [1]: down; Direction AIF1L (223075_s_at) [1]: down; Direction AK1 (202587_s_at) [1]: down; Direction AK3L1 /// AK3L2 (204347_at) [1]: down; Direction ALDH5A1 (203609_s_at) [1]: down; Direction ALOX12 (207206_s_at) [1]: down; Direction AMACR (209426_s_at) [1]: down; Direction AMOTL2 (203002_at) [1]: down; Direction ANK3 (207950_s_at) [1]: down; Direction APPL2 (218218_at) [1]: down; Direction AQP3 (203747_at) [1]: down; Direction ARHGAP27 (225618_at) [1]: down; Direction ARL17 /// ARL17P1 (1555964_at) [1]: down; Direction ARPC1A (200950_at) [1]: down; Direction ASAP3 (222236_s_at) [1]: down; Direction ATP2B4 (212136_at) [1]: down; Direction ATXN3 (205416_s_at) [1]: down; Direction BAIAP2 (205293_x_at) [1]: down; Direction BCL11A (1559078_at) [1]: down; Direction BCL11B (222895_s_at) [1]: down; Direction BICD2 (1553021_s_at) [1]: down; Direction BLCAP (201032_at) [1]: down; Direction C1orf46 (216718_at) [1]: down; Direction C1orf71 (225551_at) [1]: down; Direction C1orf97 (224443_at) [1]: down; Direction C2orf7 (223312_at) [1]: down; Direction C4orf3 (224605_at) [1]: down; Direction C6orf105 (215100_at) [1]: down; Direction C12orf29 (228378_at) [1]: down; Direction C15orf52 (227272_at) [1]: down; Direction C17orf67 (236863_at) [1]: down; Direction C20orf177 (225313_at) [1]: down; Direction CALM1 /// CALM2 /// CALM3 (200653_s_at) [1]: down; Direction CALM1 /// CALM2 /// CALM3 (209563_x_at) [1]: down; Direction CAT (211922_s_at) [1]: down; Direction CENPT (218148_at) [1]: down; Direction CEP76 (52285_f_at) [1]: down; Direction CERK (218421_at) [1]: down; Direction CKB (200884_at) [1]: down; Direction CLCN5 (232127_at) [1]: down; Direction CLDN7 (202790_at) [1]: down; Direction CLIP1 (1558924_s_at) [1]: down; Direction CLN8 (229958_at) [1]: down; Direction CNDP2 (217752_s_at) [1]: down; Direction CNTN1 (211203_s_at) [1]: down; Direction CSNK2A2 (203575_at) [1]: down; Direction CTAGE4 (215549_x_at) [1]: down; Direction CXCL12 (203666_at) [1]: down; Direction CYB5R1 (202263_at) [1]: down; Direction CYCS (244546_at) [1]: down; Direction DBI (211070_x_at) [1]: down; Direction DDR1 (1007_s_at) [1]: down; Direction DDX50 (1568815_a_at) [1]: down; Direction DHRS4 /// DHRS4L2 (218021_at) [1]: down; Direction DMD (203881_s_at) [1]: down; Direction DOPEY2 (205248_at) [1]: down; Direction ELOVL3 (234513_at) [1]: down; Direction EPCAM (201839_s_at) [1]: down; Direction EPHB4 (202894_at) [1]: down; Direction EPHB6 (204718_at) [1]: down; Direction ERI2 (213365_at) [1]: down; Direction F2RL1 (206429_at) [1]: down; Direction FAM33A (225684_at) [1]: down; Direction FAR1 (224865_at) [1]: down; Direction FBXO3 (229955_at) [1]: down; Direction FBXO3 (238686_at) [1]: down; Direction FBXO9 (212991_at) [1]: down; Direction FBXO9 (1559094_at) [1]: down; Direction FIGNL1 (222843_at) [1]: down; Direction FKBP1B (206857_s_at) [1]: down; Direction FKBPL (219187_at) [1]: down; Direction FRAG1 (41858_at) [1]: down; Direction FUCA1 (202838_at) [1]: down; Direction FUT2 (210608_s_at) [1]: down; Direction GAB1 (225998_at) [1]: down; Direction GAS7 (202192_s_at) [1]: down; Direction GDAP1 (226269_at) [1]: down; Direction GNG4 (205184_at) [1]: down; Direction GPR1 (214605_x_at) [1]: down; Direction GPR137B (204137_at) [1]: down; Direction GSN (200696_s_at) [1]: down; Direction HES5 (239230_at) [1]: down; Direction HIGD1A (217845_x_at) [1]: down; Direction HN1 (222396_at) [1]: down; Direction HN1L (212115_at) [1]: down; Direction HSDL2 (209512_at) [1]: down; Direction ID2 (201565_s_at) [1]: down; Direction IDH2 (210045_at) [1]: down; Direction IL22RA1 (220056_at) [1]: down; Direction INPP5D (203332_s_at) [1]: down; Direction ITGA3 (201474_s_at) [1]: down; Direction JAG1 (209099_x_at) [1]: down; Direction JAG1 (216268_s_at) [1]: down; Direction JMJD7 /// JMJD7-PLA2G4B /// PLA2G4B (222256_s_at) [1]: down; Direction KCNK7 (224055_x_at) [1]: down; Direction KCTD15 (222668_at) [1]: down; Direction KIF1B (209234_at) [1]: down; Direction KIF1B (225878_at) [1]: down
